# Results as given in patent US9371317B2, “Sweet flavor modifier” (SENOMYX, INC., priority 2013, dated 2016).
# Columns and labels:
# human panelists [1] = test: Enhancement of sucrose at pH 7.1: paired comparison taste test, 6% sucrose+compound vs. 10%, 11% or 12% sucrose; assay type: in vivo; settings: 10 ppm compound in 6% sucrose
# Procedure: (§1) Test samples containing experimental compounds are presented in pairs to the panelist and they are asked to determine which of the sample is sweeter. […] A group of 10 to 16 or more panelists participated in each test. Subjects refrained from eating or drinking (except water) for at least 1 hour prior to the test. Subjects rinsed with water several times to clean the mouth.
# (§2) Taste tests were performed with sucrose or HFCS as the sweetener in the presence or absence of compound. A 0.2% stock solution of compound in water with sodium bicarbonate was prepared and then this stock solution was diluted in the final sample to achieve the targeted final concentration of compound. Taste samples were also prepared in a low sodium phosphate buffer (pH 7.1; “LSB”) lacking sucrose or HFCS to evaluate the taste of the compound alone. Low sodium phosphate buffer consists of 0.3 mM KCl, 0.5 mM Na2HPO4, and 0.175 mM KH2PO4. Sample volumes are usually 20 ml.
# (§3) In one paired comparison test, the panelist is presented with two different samples and asked to identify the sample which is sweeter. The samples within a paired comparison test are presented in a randomized, counterbalanced order. Panelists have up to a 1 minute delay between taste tests to clear the mouth of any tastes. […]
# human panelists [2] = test: Enhancement of HFCS at pH 2.8: paired comparison taste test, 6% HFCS+compound vs. 8% or 9% HFCS; assay type: in vivo; settings: 20 ppm compound in 6% HFCS
# Procedure: as §1, §2, §3
# human panelists [3] = test: Sweetness threshold: paired comparison taste test, LSB+compound at pH 7.1 vs. 1% sucrose; assay type: in vivo; settings: 25 ppm compound in LSB
# Procedure: as §1, §2, §3
# human panelists [4] = test: Enhancement of sucrose at pH 2.8: paired comparison taste test, 6% sucrose+compound vs. 10%, 11% or 12% sucrose; assay type: in vivo
# Procedure: as §1, §2, §3
smiles,measurement,setting,value
"CC(C)(COc1cccc2c1C(N)=NS(=O)(=O)N2)NC(=O)c1ccncc1 [Compound A1, N-(1-(4-amino-2,2-dioxide-1H-benzo[c][1,2,6]thiadiazin-5-yloxy)-2-methylpropan-2-yl)isonicotinamide]",Sucrose equivalence of 6% sucrose + compound,human panelists [1],10 ppm in 6% sucrose is equivalent to 10% sucrose
same,HFCS equivalence of 6% HFCS + compound,human panelists [2],20 ppm in 6% HFCS is equivalent to 9% HFCS
same,melting point,,235 to 238 °C
same,Sweetness of compound alone vs. 1% sucrose,human panelists [3],25 ppm equivalent to 1% sucrose
same,Sucrose equivalence of 6% sucrose + compound,human panelists [4]; 5 ppm compound in 6% sucrose,5 ppm in 6% sucrose is equivalent to 11% sucrose
same,Sucrose equivalence of 6% sucrose + compound,human panelists [4]; 10 ppm compound in 6% sucrose,10 ppm in 6% sucrose is equivalent to 12% sucrose
"Cc1cc(C(=O)NC(C)(C)COc2cccc3c2C(N)=NS(=O)(=O)N3)ccn1 [Example 2, N-(1-((4-amino-2,2-dioxide-1H-benzo[c][1,2,6]thiadiazin-5-yl)oxy)-2-methylpropan-2-yl)-2-methylisonicotinamide]",melting point,,238 to 240 °C
"NC1=NS(=O)(=O)Nc2cccc(OCC3(NC(=O)c4ccncc4)CCCC3)c21 [Example 9, N-(1-(((4-amino-2,2-dioxido-1H-benzo[c][1,2,6]thiadiazin-5-yl)oxy)methyl)cyclopentyl)isonicotinamide]",melting point,,> 250 °C
